In US11771663B2, “Epinephrine spray formulations” (HIKMA PHARMACEUTICALS USA INC., priority 2015, dated 2023) one finds concentration data, which are given here for 1 compound.

A short description of data set [1]: Mini-pig pharmacokinetics, single-dose crossover, plasma epinephrine by LC-MS/MS. Conditions: male, Yucatan, 0.3 mg per animal, minipig, single-dose intramuscular (IM), read-out: geometric mean plasma concentration of epinephrine. Format: in vivo, Yucatan mini-pigs. How it is done: Protocol design was a single-dose crossover study. Five healthy male Yucatan mini-pigs weighing approximately eighty to ninety-five kilograms each were administered epinephrine formulations. The minipigs were fasted overnight till four hours' post administration. Each dosing was followed by a washout period of at least one-week. Blood samples were taken prior to administration and 2, 5, 10, 15, 20, 30, 45 min, 1, 1.5, 2, 4, and 24 hours' post dose. Minipig plasma samples were measured for epinephrine concentrations via liquid chromatography-tandem mass spectrometry.

Data set [2] in a line: Rabbit pharmacokinetics, single-dose non-crossover, plasma epinephrine by LC-MS/MS. Format: in vivo, New Zealand white rabbits. To be noted: male, New Zealand white, intramuscular, 0.03 mg per animal, single-dose IM. How it is done:
Protocol design was a single-dose non-crossover study. Pharmacokinetics of a number of epinephrine formulations were evaluated in healthy male New Zealand white rabbits weighing approximately two to three kilograms. For dosing of each formulation, five or six rabbits were used. The rabbits were fasted overnight till four hours' post administration. Blood samples were taken prior to administration and 5, 10, 15, 20, 30, 40 min, 1, 1.5, 2, 4, and 5 hours' post dose. Rabbit plasma samples were measured for epinephrine concentrations via liquid chromatography-tandem mass spectrometry. Formulation #R9 existed as a spray-dried powder of epinephrine bitartrate salt. For the evaluation of #R9, approximately 21.83 mg of powder was dosed to each animal, as an equivalent dose of 12 mg epinephrine.

As for `CNC[C@H](O)c1ccc(O)c(O)c1` [epinephrine, Epinephrine], the concentration at 5 min in data set [1] worked out at 0.046 ng/mL; in data set [2], 0.988 ng/mL.
